Assay: mn = molality of the nth substance listed, in mol/kg
Settings: 100 kPa, Liquid; for speed of sound: Frequency=3 MHz, Single path-length method; for mass density: Vibrating tube method

[Cl-].[Li+] [lithium chloride] + O
Settings | mass density, 288.15 K [kg/m3] | mass density, 293.15 K [kg/m3] | mass density, 298.15 K [kg/m3] | mass density, 303.15 K [kg/m3] | mass density, 308.15 K [kg/m3] | speed of sound, 288.15 K [m/s] | speed of sound, 293.15 K [m/s] | speed of sound, 298.15 K [m/s] | speed of sound, 303.15 K [m/s] | speed of sound, 308.15 K [m/s]
m1 = 0.05 | 1000.33 | 999.427 | 998.265 | 996.862 | 995.242 | 1469.6 | 1485.6 | – | 1512 | –
m1 = 0.1002 | 1001.57 | 1000.66 | 999.489 | 998.083 | – | 1472.7 | 1488.6 | 1502.6 | 1514.8 | 1525.3
m1 = 0.1498 | 1002.78 | 1001.87 | 1000.69 | 999.281 | 997.651 | 1475.8 | 1491.6 | 1505.5 | 1517.6 | –
m1 = 0.1999 | 1004 | 1003.08 | 1001.89 | 1000.48 | 998.845 | 1478.8 | 1494.6 | 1508.3 | 1520.3 | 1530.7
m1 = 0.2502 | 1005.22 | 1004.28 | 1003.1 | 1001.68 | 1000.04 | 1482 | 1497.6 | 1511.2 | – | –
m1 = 0.2999 | 1006.41 | 1005.47 | 1004.28 | 1002.86 | 1001.21 | 1485 | 1500.5 | 1514.1 | 1525.9 | 1536
m1 = 0.3503 | 1007.63 | 1006.67 | 1005.47 | 1004.05 | 1002.4 | 1488.1 | 1503.5 | 1516.9 | 1528.6 | 1538.7
m1 = 0.4 | 1008.83 | 1007.86 | 1006.65 | 1005.22 | 1003.57 | 1491.1 | 1506.3 | 1519.6 | 1531.2 | 1541.2
m1 = 0.4503 | 1010.02 | 1009.04 | 1007.83 | 1006.4 | 1004.74 | 1494.2 | 1509.2 | 1522.4 | 1533.9 | 1543.8
m1 = 0.5 | 1011.21 | 1010.21 | 1008.99 | 1007.56 | 1005.9 | 1497.2 | 1512.1 | 1525.1 | 1536.6 | 1546.4

Source: the NIST ThermoML archive (doi:10.1016/j.jct.2017.02.004)
